From ChEMBL document CHEMBL1201862, “PubChem BioAssay data set” (2004)
The source made the active and inactive calls.

Legend:
[1] = target: T1, Apoptotic protease-activating factor 1 (Homo sapiens, UniProt O14727); assay type: functional
T1 sequence (O14727 whole entry): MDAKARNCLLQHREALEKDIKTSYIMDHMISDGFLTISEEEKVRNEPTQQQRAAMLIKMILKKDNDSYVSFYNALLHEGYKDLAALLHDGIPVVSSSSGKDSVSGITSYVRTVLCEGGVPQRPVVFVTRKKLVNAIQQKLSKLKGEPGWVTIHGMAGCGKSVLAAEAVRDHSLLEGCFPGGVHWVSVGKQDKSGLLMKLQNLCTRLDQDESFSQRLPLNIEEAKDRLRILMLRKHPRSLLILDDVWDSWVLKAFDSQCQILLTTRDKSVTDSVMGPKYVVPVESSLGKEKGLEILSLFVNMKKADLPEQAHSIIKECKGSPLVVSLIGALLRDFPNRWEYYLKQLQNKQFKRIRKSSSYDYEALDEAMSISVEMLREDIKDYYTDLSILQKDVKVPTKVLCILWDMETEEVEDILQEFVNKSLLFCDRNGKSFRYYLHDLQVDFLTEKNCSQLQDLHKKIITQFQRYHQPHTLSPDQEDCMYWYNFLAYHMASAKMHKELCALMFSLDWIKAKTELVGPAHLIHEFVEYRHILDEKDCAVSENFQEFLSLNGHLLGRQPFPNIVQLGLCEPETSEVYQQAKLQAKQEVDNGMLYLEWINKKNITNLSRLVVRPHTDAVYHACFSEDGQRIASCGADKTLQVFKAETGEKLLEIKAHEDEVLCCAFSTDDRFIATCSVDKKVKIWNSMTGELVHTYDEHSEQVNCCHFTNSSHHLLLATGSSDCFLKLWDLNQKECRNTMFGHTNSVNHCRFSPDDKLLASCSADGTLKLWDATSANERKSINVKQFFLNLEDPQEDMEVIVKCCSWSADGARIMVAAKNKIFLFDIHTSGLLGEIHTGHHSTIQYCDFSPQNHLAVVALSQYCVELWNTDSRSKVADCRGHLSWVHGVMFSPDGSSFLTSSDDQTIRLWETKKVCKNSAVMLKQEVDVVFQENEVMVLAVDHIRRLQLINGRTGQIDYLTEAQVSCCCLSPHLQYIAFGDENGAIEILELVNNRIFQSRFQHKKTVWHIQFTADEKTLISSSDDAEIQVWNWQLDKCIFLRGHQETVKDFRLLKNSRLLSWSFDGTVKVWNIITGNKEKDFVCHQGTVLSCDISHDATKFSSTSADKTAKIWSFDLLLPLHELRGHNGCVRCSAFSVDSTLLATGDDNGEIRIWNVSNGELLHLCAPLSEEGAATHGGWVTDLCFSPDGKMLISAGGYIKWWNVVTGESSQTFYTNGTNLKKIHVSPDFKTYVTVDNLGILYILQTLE

[2] = target: T2, Microphthalmia-associated transcription factor (Homo sapiens, UniProt O75030); assay: reducers of TRPM1 reporter luminescence, concentration series – cell-based, SK-MEL-5, cherry-picked, set 3, MITF inhibitor project, dose response (AID 493073); assay type: functional;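 note: SK-MEL-5 melanoma cells with luciferase driven by the MITF target TRPM1 promoter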
T2 sequence (O75030 whole entry): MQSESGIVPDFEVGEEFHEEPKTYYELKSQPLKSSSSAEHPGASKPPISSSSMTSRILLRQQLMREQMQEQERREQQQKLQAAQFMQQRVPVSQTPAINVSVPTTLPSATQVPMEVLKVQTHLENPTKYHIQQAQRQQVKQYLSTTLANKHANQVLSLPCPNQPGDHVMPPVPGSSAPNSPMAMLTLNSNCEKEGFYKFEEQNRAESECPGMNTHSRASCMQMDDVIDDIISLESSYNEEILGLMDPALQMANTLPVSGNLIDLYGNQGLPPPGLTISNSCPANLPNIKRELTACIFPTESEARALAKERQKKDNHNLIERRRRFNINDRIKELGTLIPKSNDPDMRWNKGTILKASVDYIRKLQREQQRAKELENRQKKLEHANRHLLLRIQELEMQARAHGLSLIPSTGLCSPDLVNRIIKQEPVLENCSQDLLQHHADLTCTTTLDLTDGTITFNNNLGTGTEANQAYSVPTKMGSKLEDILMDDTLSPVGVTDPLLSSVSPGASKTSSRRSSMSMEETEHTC

Paired box protein Pax-8 = Paired box protein Pax-8 (Homo sapiens, UniProt Q06710); assay: PAX8 transcriptional activity inhibition in RMG-I – RMG-I cells, luciferase, cherry-pick, dose response (AID 687027); assay type: functional, cell-based;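 note: luciferase reporter driven by Pax8 target thyroperoxidase promoter measured by SteadyGlo luminescence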
Nonstructural protein 1 = Nonstructural protein 1 (Influenza A virus, UniProt Q194T2); assay type: functional, Influenza A virus (A/California/07/2009(H1N1))
Cytochrome P450 1A2 = target: T3, Cytochrome P450 1A2 (Homo sapiens, UniProt P05177);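 note: PubChem cytochrome P450 panel assay, CYP1A2 panel member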
T3 sequence (P05177 whole entry): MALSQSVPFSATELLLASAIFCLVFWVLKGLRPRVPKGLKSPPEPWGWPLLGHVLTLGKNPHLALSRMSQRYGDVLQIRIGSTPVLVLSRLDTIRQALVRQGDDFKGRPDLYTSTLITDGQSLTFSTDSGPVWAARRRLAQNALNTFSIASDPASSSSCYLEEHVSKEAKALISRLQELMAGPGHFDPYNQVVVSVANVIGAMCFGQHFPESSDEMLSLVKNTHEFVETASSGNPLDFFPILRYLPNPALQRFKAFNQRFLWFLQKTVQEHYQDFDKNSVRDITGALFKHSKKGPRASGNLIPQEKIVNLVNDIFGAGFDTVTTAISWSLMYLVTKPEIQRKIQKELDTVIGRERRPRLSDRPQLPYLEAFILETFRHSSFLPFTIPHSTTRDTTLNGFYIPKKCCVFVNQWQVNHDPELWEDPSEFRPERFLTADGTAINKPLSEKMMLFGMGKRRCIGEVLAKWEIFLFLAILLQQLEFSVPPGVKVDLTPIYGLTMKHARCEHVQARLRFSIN

[3] = Luminescence Cell-Based Dose Confirmation HTS to Identify Inhibitors of Platelet Dense Granule Release. [Related pubchem assays: 1663 (Primary HTS), 1678 (Summary of Project)]; assay type: functional
[4] = target: Luciferin 4-monooxygenase (Photinus pyralis, UniProt P08659); assay: inhibition of purified Photinus pyralis luciferase – biochemical, luminescence, dose response (AID 1891)
P388/ADR = assay: cells; assay type: functional; details: Mus musculus
SN12K1 = assay: cells; assay type: functional; details: Homo sapiens
P388 = assay: cells; assay type: functional; details: Mus musculus
Protein RecA = target: T4, Protein RecA (Mycobacterium tuberculosis, UniProt P9WHJ3); assay: Fluorescence Cell-Free Homogeneous Dose Retest to Identify Inhibitors of RecA-Intein Splicing Activity. [Related pubchem assays (depositor defined):AID2097, AID2223, AID489010, AID492950]; assay type: functional
T4 sequence (P9WHJ3 whole entry): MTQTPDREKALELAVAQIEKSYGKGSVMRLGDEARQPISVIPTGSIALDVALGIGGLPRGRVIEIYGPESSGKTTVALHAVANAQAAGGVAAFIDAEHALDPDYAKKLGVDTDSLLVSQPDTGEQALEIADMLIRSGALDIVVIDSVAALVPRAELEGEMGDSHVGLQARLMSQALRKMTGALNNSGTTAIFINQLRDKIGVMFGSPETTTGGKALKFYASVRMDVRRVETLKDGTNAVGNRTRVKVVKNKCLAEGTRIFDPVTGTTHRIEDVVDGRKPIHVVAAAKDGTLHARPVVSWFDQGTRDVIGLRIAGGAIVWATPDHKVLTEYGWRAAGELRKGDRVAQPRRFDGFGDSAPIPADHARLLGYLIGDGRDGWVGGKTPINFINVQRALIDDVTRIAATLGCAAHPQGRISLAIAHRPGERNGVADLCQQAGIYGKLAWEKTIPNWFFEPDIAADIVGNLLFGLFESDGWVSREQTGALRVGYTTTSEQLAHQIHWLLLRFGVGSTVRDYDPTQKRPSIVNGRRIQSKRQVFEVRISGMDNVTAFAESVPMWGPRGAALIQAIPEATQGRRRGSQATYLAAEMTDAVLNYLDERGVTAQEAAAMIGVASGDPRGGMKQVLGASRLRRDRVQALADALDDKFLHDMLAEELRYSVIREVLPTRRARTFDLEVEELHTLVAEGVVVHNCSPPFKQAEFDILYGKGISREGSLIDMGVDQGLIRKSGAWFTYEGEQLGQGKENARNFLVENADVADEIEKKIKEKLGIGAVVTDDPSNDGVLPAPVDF

[5] = target: T5, Replicative DNA helicase DnaB (Mycobacterium tuberculosis, UniProt P9WMR3); assay: DnaB intein splicing inhibitors, dose response, biochemical, cell-free fluorescence (AID 449749); assay type: functional
T5 sequence (P9WMR3 whole entry): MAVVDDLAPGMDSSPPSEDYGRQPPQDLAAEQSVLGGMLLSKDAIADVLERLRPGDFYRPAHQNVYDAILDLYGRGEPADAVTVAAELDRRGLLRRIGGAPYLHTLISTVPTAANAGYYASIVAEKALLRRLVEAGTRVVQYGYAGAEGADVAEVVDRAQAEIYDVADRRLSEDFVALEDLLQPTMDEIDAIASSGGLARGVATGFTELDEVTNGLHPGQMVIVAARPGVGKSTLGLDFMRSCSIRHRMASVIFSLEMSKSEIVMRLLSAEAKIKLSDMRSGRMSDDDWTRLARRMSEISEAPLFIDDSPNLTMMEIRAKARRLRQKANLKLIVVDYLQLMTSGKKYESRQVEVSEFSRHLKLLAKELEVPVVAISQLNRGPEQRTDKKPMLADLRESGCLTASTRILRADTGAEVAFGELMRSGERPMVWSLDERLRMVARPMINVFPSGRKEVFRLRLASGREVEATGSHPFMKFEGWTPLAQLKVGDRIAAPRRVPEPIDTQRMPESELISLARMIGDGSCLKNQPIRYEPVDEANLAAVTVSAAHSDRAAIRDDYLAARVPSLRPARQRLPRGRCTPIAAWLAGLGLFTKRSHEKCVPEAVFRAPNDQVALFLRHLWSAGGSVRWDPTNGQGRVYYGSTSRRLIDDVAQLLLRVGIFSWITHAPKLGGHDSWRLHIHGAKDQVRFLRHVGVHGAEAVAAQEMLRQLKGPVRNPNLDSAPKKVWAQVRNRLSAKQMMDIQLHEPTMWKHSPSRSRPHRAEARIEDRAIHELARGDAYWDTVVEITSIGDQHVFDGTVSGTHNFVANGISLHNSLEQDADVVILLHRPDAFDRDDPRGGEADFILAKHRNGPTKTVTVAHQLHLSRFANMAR

Luciferin 4-monooxygenase, sequence (P08659 whole entry): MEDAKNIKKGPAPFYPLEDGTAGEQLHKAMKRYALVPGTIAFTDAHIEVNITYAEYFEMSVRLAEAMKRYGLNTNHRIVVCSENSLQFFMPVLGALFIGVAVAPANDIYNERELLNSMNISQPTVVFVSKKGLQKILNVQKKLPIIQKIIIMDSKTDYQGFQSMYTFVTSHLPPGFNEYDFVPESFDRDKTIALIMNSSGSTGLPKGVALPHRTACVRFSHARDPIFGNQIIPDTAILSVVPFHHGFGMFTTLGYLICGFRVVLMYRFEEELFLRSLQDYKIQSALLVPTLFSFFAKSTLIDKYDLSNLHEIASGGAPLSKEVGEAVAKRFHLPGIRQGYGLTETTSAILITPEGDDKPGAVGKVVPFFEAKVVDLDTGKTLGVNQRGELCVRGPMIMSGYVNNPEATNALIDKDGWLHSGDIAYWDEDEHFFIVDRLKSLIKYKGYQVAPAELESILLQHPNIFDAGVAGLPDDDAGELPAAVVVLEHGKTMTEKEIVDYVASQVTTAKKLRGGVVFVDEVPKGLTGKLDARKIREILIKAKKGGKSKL
Nonstructural protein 1, sequence (Q194T2 whole entry): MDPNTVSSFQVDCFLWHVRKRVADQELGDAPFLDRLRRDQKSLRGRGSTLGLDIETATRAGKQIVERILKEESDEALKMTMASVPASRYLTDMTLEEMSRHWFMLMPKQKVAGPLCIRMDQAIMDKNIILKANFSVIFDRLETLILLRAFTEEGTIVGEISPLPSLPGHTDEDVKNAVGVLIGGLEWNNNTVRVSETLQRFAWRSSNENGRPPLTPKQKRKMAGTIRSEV
Paired box protein Pax-8, sequence (Q06710 whole entry): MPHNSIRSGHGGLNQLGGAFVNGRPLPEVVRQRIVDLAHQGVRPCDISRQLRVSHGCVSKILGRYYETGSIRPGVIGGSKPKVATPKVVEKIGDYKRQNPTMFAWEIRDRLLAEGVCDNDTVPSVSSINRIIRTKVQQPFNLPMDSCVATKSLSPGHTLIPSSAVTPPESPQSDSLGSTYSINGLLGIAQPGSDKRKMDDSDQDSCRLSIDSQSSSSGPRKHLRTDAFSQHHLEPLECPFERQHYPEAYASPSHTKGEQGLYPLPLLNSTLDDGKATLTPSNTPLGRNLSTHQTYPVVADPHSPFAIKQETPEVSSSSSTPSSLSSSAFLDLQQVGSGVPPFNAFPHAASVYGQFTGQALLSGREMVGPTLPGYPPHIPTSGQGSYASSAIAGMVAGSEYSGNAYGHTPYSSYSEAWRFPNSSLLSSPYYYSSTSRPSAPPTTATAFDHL

Structure (SMILES): CN(C)c1cc(N/N=C/c2ccccc2C(F)(F)F)nc(N(C)C)n1
- IC50 [1]: 5.07 µM (active)

Structure (SMILES): O=C1C=CC(=C(c2ccc(O)cc2)c2ccc(O)cc2)C=C1 [AURIN]
- AC50 [2]: 9.92 µM (active)
- AC50 (Paired box protein Pax-8): 8.81 µM (active)
- IC50 (Nonstructural protein 1): 59.1 µM (active)

Structure (SMILES): COc1cc(/C=N/NC(N)=O)c(Br)cc1OCC(=O)Nc1ccccc1C
- AC50 [2]: 17.8 µM (active)
- AC50 (Cytochrome P450 1A2): 14.1 µM (inconclusive)
- EC50 [3]: > 112 µM (not active)
- EC50 [4]: > 112 µM (not active)

Structure (SMILES): COc1cc(/C=C/C(=O)Oc2ccc(NC(C)=O)cc2)ccc1C(=O)O/C=C/c1ccccc1
- GI50 (P388/ADR): 8.02 µM (inactive)
- GI50 (SN12K1): > 100 µM (inactive)
- GI50 (P388): 18.8 µM (inactive)

Structure (SMILES): CNC=O
- GI50 (P388/ADR): > 10000 µM (inactive)
- GI50 (SN12K1): > 10000 µM (inactive)
- GI50 (P388): > 5620 µM (inactive)

Structure (SMILES): COc1cc(C(=O)NCC(=O)N/N=C/c2cccc(OC(=O)c3ccco3)c2)cc(OC)c1OC
- EC50 (Protein RecA): 16.6 µM (active)
- AC50 [5]: 36 µM (active)

Structure (SMILES): O=C1Sc2sc(=S)sc2SC1c1ccccc1 (stereo unspecified)
- GI50 (P388/ADR): 23.7 µM (inactive)
- GI50 (SN12K1): 25.1 µM (inactive)
- GI50 (P388): 22.5 µM (inactive)

Structure (SMILES): C/C(CC(=O)Nc1cc(C)ccn1)=N\NC(=O)c1ccncc1
- EC50 (Protein RecA): 4.03 µM (active)
- AC50 [5]: 7.32 µM (active)
